Laboratory results: US4247535A, “Modified cyclodextrin sulfate salts as complement inhibitors” (American Cyanamid Company, priority 1979, dated 1981)
Structures can show the parent of a compound that is named as a salt.

Key:
[1] = system: hereditary angioneurotic edema; conditions: reported in the literature; cited from earlier work
[2] = system: shunt pathway; experiment: Test Code 036 (C-Shunt inhibitor), lysis of fragile human erythrocytes in autologous serum, cobra venom factor; assay type: cell-based; conditions: activity in wells, twofold serial dilution assay; higher well number = higher activity
Description: (§1) An active inhibitor protects C2 from C1 and C4; (ii) Test Code 035 (C3-C9 inhibitor)--This test determines the ability of the late components of human complement (C3-C9) to lyse EAC 142 in the presence of appropriate dilutions of the test compound. An active inhibitor protects EAC 142 from lysis by human C3-C9; (iii) Test Code 036 (C-Shunt inhibitor)--In this test human erythrocytes rendered fragile are lysed in autologous serum via the shunt pathway activated by cobra venom factor in the presence of appropriate dilutions of the test compound. Inhibition of the shunt pathway results in failure of lysis; (iv) Forssman Vasculitis Test--Here, the well known complement dependent lesion, Forssman vasculitis, is produced in guinea pigs by intradermal injection of rabbit anti-Forssman antiserum. […]

[3] = system: whole complement; experiment: Complement Level Reduction Test (in vivo, capillary tube assay of serum); conditions: 200 mg/kg i.v. or i.p.
Description: An active inhibitor protects C2 from C1 and C4; (ii) Test Code 035 (C3-C9 inhibitor)--This test determines the ability of the late components of human complement (C3-C9) to lyse EAC 142 in the presence of appropriate dilutions of the test compound. An active inhibitor protects EAC 142 from lysis by human C3-C9; (iii) Test Code 036 (C-Shunt inhibitor)--In this test human erythrocytes rendered fragile are lysed in autologous serum via the shunt pathway activated by cobra venom factor in the presence of appropriate dilutions of the test compound. Inhibition of the shunt pathway results in failure of lysis; (iv) Forssman Vasculitis Test--Here, the well known complement dependent lesion, Forssman vasculitis, is produced in guinea pigs by intradermal injection of rabbit anti-Forssman antiserum. The lesion is measured in terms of diameter, edema and hemorrhage and the extent to which a combined index of these is inhibited by prior intraperitoneal injection of the test compound at 200 mg/kg is then reported, unless otherwise stated; (v) Forssman Shock Test--Lethal shock is produced in guinea pigs by an i.v. injection of anti-Forssman antiserum and the harmonic mean death time of treated guinea pigs is compared with that of simultaneous controls; (vi) Complement Level Reduction Test--In this test, the above dosed guinea pigs, or others, are bled for serum and the complement level is determined in undiluted serum by the capillary tube method of U.S. Pat. No. 3,876,376 and compared to undosed control guinea pigs; and (vii) Cap 50 Test--Here, appropriate amounts of the test compound are added to a pool of guinea pig serum in vitro, after which the undiluted serum capillary tube assay referred to above is run. The concentration of compound inhibiting 50% is reported.
With reference to Table I, guinea pigs weighing about 300 g were dosed intravenously (i.v.) or intraperitoneally (i.p.) with 200 mg/kg of the test compound dissolved in saline and adjusted to pH 7-8. […] Percent inhibition was calculated by comparison with simultaneous controls. […]

[4] = system: late components of human complement (C3-C9); experiment: Test Code 035 (C3-C9 inhibitor), lysis of EAC 142; assay type: biochemical; conditions: activity in wells, twofold serial dilution assay; higher well number = higher activity
Description: as §1

[5] = target: activated human C1 (Homo sapiens, UniProt P09871); experiment: Test Code 026 (C1 inhibitor); assay type: biochemical; conditions: activity in wells, twofold serial dilution assay; higher well number = higher activity
activated human C1, sequence (P09871 16-688): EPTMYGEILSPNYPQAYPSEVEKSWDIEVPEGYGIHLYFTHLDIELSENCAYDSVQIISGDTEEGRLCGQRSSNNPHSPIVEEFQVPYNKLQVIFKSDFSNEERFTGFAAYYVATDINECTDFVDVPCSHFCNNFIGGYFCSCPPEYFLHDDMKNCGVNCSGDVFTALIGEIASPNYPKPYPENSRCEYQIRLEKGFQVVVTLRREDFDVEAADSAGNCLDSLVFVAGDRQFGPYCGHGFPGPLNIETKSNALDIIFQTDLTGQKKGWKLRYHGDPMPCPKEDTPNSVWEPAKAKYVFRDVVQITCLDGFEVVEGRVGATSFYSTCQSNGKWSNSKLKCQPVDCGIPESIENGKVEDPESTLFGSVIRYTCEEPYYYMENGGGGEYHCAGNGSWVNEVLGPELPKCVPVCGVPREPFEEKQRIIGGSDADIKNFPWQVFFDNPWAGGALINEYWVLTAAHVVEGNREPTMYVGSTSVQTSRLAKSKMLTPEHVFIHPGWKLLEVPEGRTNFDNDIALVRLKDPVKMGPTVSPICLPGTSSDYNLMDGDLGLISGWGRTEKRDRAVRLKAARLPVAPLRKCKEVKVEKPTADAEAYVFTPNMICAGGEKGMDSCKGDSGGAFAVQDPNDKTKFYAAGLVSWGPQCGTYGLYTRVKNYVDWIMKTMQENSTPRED
activated human C1, sequence (P00736 18-705 partner): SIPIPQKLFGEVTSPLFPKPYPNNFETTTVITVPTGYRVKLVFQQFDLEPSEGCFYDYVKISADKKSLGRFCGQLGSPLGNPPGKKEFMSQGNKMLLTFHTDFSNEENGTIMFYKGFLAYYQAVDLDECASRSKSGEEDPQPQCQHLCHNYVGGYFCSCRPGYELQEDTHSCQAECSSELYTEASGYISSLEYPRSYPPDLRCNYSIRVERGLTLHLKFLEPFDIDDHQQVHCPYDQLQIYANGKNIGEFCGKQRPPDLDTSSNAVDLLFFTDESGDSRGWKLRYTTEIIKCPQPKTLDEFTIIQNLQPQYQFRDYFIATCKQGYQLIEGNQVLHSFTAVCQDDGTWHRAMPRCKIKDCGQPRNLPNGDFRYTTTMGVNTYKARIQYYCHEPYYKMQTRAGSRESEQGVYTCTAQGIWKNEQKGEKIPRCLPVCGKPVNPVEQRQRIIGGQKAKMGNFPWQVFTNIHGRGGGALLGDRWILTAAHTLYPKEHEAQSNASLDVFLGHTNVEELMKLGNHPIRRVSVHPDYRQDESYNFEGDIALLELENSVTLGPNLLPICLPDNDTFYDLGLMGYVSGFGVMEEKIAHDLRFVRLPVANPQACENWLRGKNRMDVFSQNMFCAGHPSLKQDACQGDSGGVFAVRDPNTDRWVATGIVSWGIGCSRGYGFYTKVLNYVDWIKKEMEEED
activated human C1, sequence (P02745 23-245 partner): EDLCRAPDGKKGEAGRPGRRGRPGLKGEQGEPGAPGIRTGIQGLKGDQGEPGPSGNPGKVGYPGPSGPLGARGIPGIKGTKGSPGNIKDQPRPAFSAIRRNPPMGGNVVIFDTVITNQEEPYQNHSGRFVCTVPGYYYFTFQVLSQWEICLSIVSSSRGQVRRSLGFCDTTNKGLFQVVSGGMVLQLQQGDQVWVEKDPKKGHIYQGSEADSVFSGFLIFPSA
activated human C1, sequence (P02746 28-253 partner): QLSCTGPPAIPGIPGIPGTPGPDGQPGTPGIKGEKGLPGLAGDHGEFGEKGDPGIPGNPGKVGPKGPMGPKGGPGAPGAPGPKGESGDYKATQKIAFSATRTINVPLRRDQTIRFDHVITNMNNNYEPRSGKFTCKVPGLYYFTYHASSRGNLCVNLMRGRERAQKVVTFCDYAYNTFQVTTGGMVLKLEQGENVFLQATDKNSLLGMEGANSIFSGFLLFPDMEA
activated human C1, sequence (P02747 29-245 partner): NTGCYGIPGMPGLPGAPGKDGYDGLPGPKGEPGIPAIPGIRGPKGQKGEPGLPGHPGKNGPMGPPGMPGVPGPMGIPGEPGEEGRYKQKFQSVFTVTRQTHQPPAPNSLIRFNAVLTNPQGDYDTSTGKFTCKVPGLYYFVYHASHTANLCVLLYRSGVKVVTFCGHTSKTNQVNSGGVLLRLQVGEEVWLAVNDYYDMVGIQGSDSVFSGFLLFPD
Description: as §1

[6] = system: human serum; conditions: both in vitro and in vivo, judged by reduction in total hemolytic complement activity; cited from earlier work
[7] = system: complement system; conditions: reported, British Journal of Experimental Pathology, 33, 327-339 (1952); cited from earlier work

Compound: NC[C@H]1CC[C@H](C(=O)O)CC1 [tranexamic acid]
- treatment of hereditary angioneurotic edema [1]: used with success

Compound: O=C(O)[C@H]1O[C@@H]2O[C@H]3[C@H](OS(=O)(=O)O)[C@@H](OS(=O)(=O)O)[C@@H](O[C@H]4[C@H](OS(=O)(=O)O)[C@@H](OS(=O)(=O)O)[C@@H](O[C@H]5[C@H](OS(=O)(=O)O)[C@@H](OS(=O)(=O)O)[C@@H](O[C@H]6[C@H](OS(=O)(=O)O)[C@@H](OS(=O)(=O)O)[C@@H](O[C@H]7[C@H](OS(=O)(=O)O)[C@@H](OS(=O)(=O)O)[C@@H](O[C@H]8[C@H](OS(=O)(=O)O)[C@@H](OS(=O)(=O)O)[C@@H](O[C@H]1[C@H](OS(=O)(=O)O)[C@H]2OS(=O)(=O)O)O[C@@H]8C(=O)O)O[C@@H]7C(=O)O)O[C@@H]6C(=O)O)O[C@@H]5C(=O)O)O[C@@H]4C(=O)O)O[C@@H]3C(=O)O [5,5',5",5'",5"",5'"",5"""-Heptacarboxy-6,6',6",6'",6"",6'"",6"""-heptademethyl-β-cyclodextrin, heptasodium salt, tetradecakis (H-sulfate), tetradecasodium salt]
- 036 In Vitro Activity [2]: +3 wells
- In Vivo Activity (Guinea Pig) % Inhibition 30 min. ([3]; 30 min.): -18%
- In Vivo Activity (Guinea Pig) % Inhibition 60 min. ([3]; 60 min.): +14%
- In Vivo Activity (Guinea Pig) % Inhibition 120 min. ([3]; 120 min.): -40%
- 035 In Vitro Activity [4]: +1 wells
- 026 In Vitro Activity [5]: +7 wells

Compound: NCCCCCC(=O)O [epsilon-aminocaproic acid]
- treatment of hereditary angioneurotic edema [1]: used with success

Compound: pentosan-polysulfoester
- anticomplementary activity on human serum [6]: anticomplementary activity

Compound: O=C(O)[C@H]1O[C@@H]2O[C@H]3[C@H](O)[C@@H](O)[C@@H](O[C@H]4[C@H](O)[C@@H](O)[C@@H](O[C@H]5[C@H](O)[C@@H](O)[C@@H](O[C@H]6[C@H](O)[C@@H](O)[C@@H](O[C@H]7[C@H](O)[C@@H](O)[C@@H](O[C@H]8[C@H](O)[C@@H](O)[C@@H](O[C@H]1[C@H](O)[C@H]2O)O[C@@H]8C(=O)O)O[C@@H]7C(=O)O)O[C@@H]6C(=O)O)O[C@@H]5C(=O)O)O[C@@H]4C(=O)O)O[C@@H]3C(=O)O [5,5',5",5'",5"",5'"",5"""-Heptacarboxy-6,6',6",6'",6"",6'"",] [5,5',5",5'",5"",5'"",5"""-Heptacarboxy-6,6',6",6'",6"",6'"",6"""-heptademethyl-β-cyclodextrin]
- 035 In Vitro Activity [4]: N

Compound: Nc1ccc2cc(S(=O)(=O)O)cc(O)c2c1N=Nc1ccc(NC(=O)Nc2ccc(N=Nc3c(N)ccc4cc(S(=O)(=O)O)cc(O)c34)c(S(=O)(=O)O)c2)cc1S(=O)(=O)O [chlorazol fast pink, 3,3'-ureylenebis-[6-(2-amino-8-hydroxy-6-sulfo-1-naphthylazo)]benzenesulfonic acid, tetrasodium salt]
- anticomplementary effect [7]: anticomplementary effect

Compound: heparin
- anticomplementary effect [7]: anticomplementary effect
